Experimental data as given in ChEMBL document CHEMBL3507680, “University of Dundee, Gates Library screen for HepG2 cell viability”.

Assay: Human HepG2 cell viability assay in 384 well format
Type: toxicity, cell-based
Design: dose 125 nL, time 70.5 hour; cytotoxicity at 70.5 h: concentration not given beside the values
Details: HepG2 cells, read-out: Inhibition

SMILES | cytotoxicity at 70.5 h [%]
COCCN1C(=O)[C@]2(CC[C@@H]3CN(C(=O)NCC(C)C)C[C@@H]32)N=C1C | -10
CS(=O)(=O)NCc1n[nH]c2c1CCN(C(=O)c1ccsc1)C2 | 30.1
CNC(=O)C1CN(C(C)C)CCN1c1ncccn1 (stereo unspecified) | 2.44
CCCn1nccc1-c1cnc(CC2CCN(C(C)=O)C2)cn1 (stereo unspecified) | -3.63
Cc1csc(Nc2cc(C3CN(C(C)C)C3)nc(C)n2)n1 | -3.73
CN(C)C(=O)C1CN(c2ncccn2)CCN1C (stereo unspecified) | -1.97
COc1ccc(N2CCNC(C(N)=O)C2)cc1 (stereo unspecified) | 18.6
O=C(CN1CCCCCC1)N1CCc2nnc(C3CCCNC3)n2CC1 (stereo unspecified) | 16
Cn1ccc(C(=O)N2CCC(c3cc(CCO)n(C)n3)C2)n1 (stereo unspecified) | -5.56
Cc1cc(C)nc(N(C)CCn2ccnc2C)n1 | -2.15
CNc1ncccc1CN1CCN(C)CC(C(N)=O)C1 (stereo unspecified) | 25.3
Cc1cc(N2CCN(C(=O)[C@@H]3C[C@@H]4C=C[C@H]3C4)CC2)nc2ccccc12 | -4.89
Cc1nccc(N2CCN(C3CCOCC3)CC(C(=O)N(C)C)C2)n1 (stereo unspecified) | -13.5
Cc1cc(Cc2ccc(F)cc2)cc(C2CCCNC2)n1 (stereo unspecified) | 16.9
Cn1cc(CN2CCCCC2c2ccc(-c3cccc(Cl)c3)nc2)cn1 (stereo unspecified) | -4.26
Cc1ncsc1C(=O)N1CCC(c2ccc3c(NC(C)C)n[nH]c3n2)C1 (stereo unspecified) | -15.9
Cc1cc(N2CCN(C3CCOCC3)CC(C(=O)N(C)C)C2)ncn1 (stereo unspecified) | -6.48
CNC(=O)C1CN(C(C)C)CCN1c1nc(C)cc(C)n1 (stereo unspecified) | -10.7
c1cnc2c(CN3CCCCC3c3ccncn3)cnn2c1 (stereo unspecified) | -8.22
Cc1ccc(CC2COCCN(S(C)(=O)=O)C2)nc1 (stereo unspecified) | 12.3
CN1CCN(c2ncccn2)CC(C(=O)N(C)C)C1 (stereo unspecified) | -5.5
CN(C)C(=O)C1CN(c2ccncn2)CCN(C2CCOCC2)C1 (stereo unspecified) | 12.4
CNc1ncccc1CN1CCN(C(C)=O)CC(C(N)=O)C1 (stereo unspecified) | -4.74
COCC(=O)N1CCC(C)(c2cc(O)[nH]n2)CC1 | 0.0821

SMILES | cytotoxicity at 70.5 h [%]
CC(C)C[C@H](N)COc1cccc(F)c1Oc1ccc(Cl)cc1 | 26.2
Cc1ccc(Oc2c(F)cccc2OC[C@@H](N)CC(C)C)cc1 | 23.8
O=C(Nc1cc(CCC2CCN(CCO)CC2)ccn1)c1ccccn1 | 45.9
CNC(=O)c1sc2ccccc2c1CC1CCCN1Cc1cnc(C)s1 (stereo unspecified) | -10.5
CCCC(=O)N1CCCC(C(=O)c2cnn(-c3ccc(F)cc3)c2N)C1 (stereo unspecified) | -4.03
Cc1cc(C)nc(N2CCOC(c3cc(CCO)[nH]n3)C2)n1 (stereo unspecified) | -8.46
Cc1nc(NCc2nonc2C)cc(C(C)Cn2nc(C)c(C)c2C)n1 (stereo unspecified) | -7.72
Cc1nc(NCc2ccccc2)cc(C(C)Cn2nc(C)c(C)c2C)n1 (stereo unspecified) | 3.51
CCCn1nc(C)c(C(=O)N(C)[C@@H]2CC[C@@H](N3CCCC3)[C@@H]2O)c1C | -5.14
NC(=O)C1(c2cnccn2)CCCN1C(=O)Cc1ccsc1 (stereo unspecified) | -5.34
Cc1nc2ccc(Cl)cn2c1CN1CCN(S(=O)(=O)N2CCCC2)CC1 | -4.72
CN(C)c1cc(C2CCN(C(=O)c3cnn(C)c3)CC2)ccn1 | -4.9
c1cnc(C2CCCN(Cc3ccsc3)C2)cn1 (stereo unspecified) | -6.09
CC(=O)NCc1cncc(C2CCCN2C2CCOCC2)n1 (stereo unspecified) | -5.7
CC(=O)N1CCCC(c2nnc3n2CCN(C(=O)C2CCCCC2)C3)C1 (stereo unspecified) | -8.2
CCn1c(C)nc2cc(NC(=O)C3CN(C(C)=O)C3)ccc21 | -5.1
Cc1ncc(-c2ccncc2)c(C2CCN(C(=O)c3ccno3)CC2)n1 | -7.69
CS(=O)(=O)c1cncnc1C1CCCN(C(=O)Nc2ccccc2F)C1 (stereo unspecified) | -11.6
Nc1nc(N)c2c(n1)OC1(CCN(Cc3nccs3)C1)C2 (stereo unspecified) | -6.73
Nc1nc(N)c2c(n1)OC1(COCCN(Cc3nccs3)C1)C2 (stereo unspecified) | -10.4
O=C(O)c1ccc(=O)n(CC(c2ccc(F)cc2)N2CCCCCC2)c1 (stereo unspecified) | -7.77
Cc1oc2c(c1C(=O)N1CC[C@H](O)[C@]3(CCCO3)C1)CCCC2 | -5.7
O=C(c1cncs1)N1CCOC(c2cc(CCO)[nH]n2)C1 (stereo unspecified) | -7.42
CNC(=O)C1(CCCc2cnccn2)CCN1CCc1ccccc1 (stereo unspecified) | -2.58

SMILES | cytotoxicity at 70.5 h [%]
Cc1cc(C(=O)N(C)C)nc(C2(C)CCCN2c2ccccc2)n1 (stereo unspecified) | -2.68
CN(C)C(=O)C1(c2cnccn2)CCCN1C(=O)Cc1ccsc1 (stereo unspecified) | -5.5
Cc1nc(NCCO)cc(C(C)Cn2nc(C)c(C)c2C)n1 (stereo unspecified) | -3.69
CN(C)C(=O)C1(c2cnccn2)CCCN1C(=O)Cc1ccccc1 (stereo unspecified) | -5.41
Cn1nccc1C(=O)N1CCC(c2nnsc2S(C)(=O)=O)CC1 | -5.74
O=C(CN1CCC2(CC1)NC(=O)c1cc(Br)ccc1N2)NC1CC1 | -1.52
O=C1NC2(CCCN(C(=O)CCn3cncn3)C2)Oc2ccccc21 (stereo unspecified) | -4.04
COc1ccc(C(C)NCc2scnc2C)cc1Cn1cccn1 (stereo unspecified) | 0.409
O=C(c1cc(Cl)c[nH]1)N(CCCO)Cc1cccnc1 | -8.59
Cc1cc(CC(=O)N2CCc3cc(Br)sc3C2)n[nH]1 | 12.5
CC(Cn1cccn1)NCc1cccc(C#N)c1 (stereo unspecified) | -3.1
COCC(=O)Nc1ccnc(OCCN(C)C)c1 | 4.63
CCOc1ccc(N(CCC#N)C(=O)c2ccnc(SC)c2)cc1 | 9.66
O=S(=O)(Nc1ccc(N2CCOCC2)cc1)c1cccc(F)c1 | -1.37
NC(=O)CN(CC(N)=O)Cc1cccc(Oc2ccccc2)c1 | 7.82
Cc1csc(N2CCCN(C(=O)c3nccnc3N)CC2)n1 | -0.698
COc1cc(CNc2cnn(C(C)(C)C)c(=O)c2Cl)ccn1 | 1.57
CCC(=O)N(CC(N)=O)Cc1cccc(Oc2ccccc2)c1 | 0.0156
COC(C)C(=O)N(CC(N)=O)Cc1cccc(Oc2ccccc2)c1 (stereo unspecified) | -2.39
Cc1ccc(C(C)NC(=O)N2CCN(C(=O)CC(F)(F)F)CC2)o1 (stereo unspecified) | -3.77
Cc1cnn(CC2CCN(CC(O)c3ccccc3)CC2)c1 (stereo unspecified) | 13.9
Cc1cnn(CC2CCN(CC(O)COc3ccccc3)CC2)c1 (stereo unspecified) | 4.78
Cc1cnn(CC2CCN(CC(O)c3ccc(F)cc3)CC2)c1 (stereo unspecified) | -0.648
Cc1cnn(CC2CCN(CC(O)c3ccccc3Cl)CC2)c1 (stereo unspecified) | -3.1

SMILES | cytotoxicity at 70.5 h [%]
CCS(=O)(=O)NCCNc1c(C#N)cnc2c(F)cc(F)cc12 | -0.0012
CN(C)C(=O)c1cccc(NC(=O)Cc2cc(F)ccc2F)n1 | 1.76
N#CCCCS(=O)(=O)NC(=O)c1ccccc1F | -0.732
CCc1ccccc1C(=O)NS(=O)(=O)CCCC#N | 10.5
CCC(CC)(CNC(C)=O)NC(C)c1ccccc1 (stereo unspecified) | 3
CCC(CC)(CN)NC(C)c1ccccc1 (stereo unspecified) | -7.08
CCOc1cccnc1C(=O)N1CCCN(c2nc(C)cs2)CC1 | -3.42
COc1cc(CNC(C)c2nnc3n2CCC3)cc(OC)c1 (stereo unspecified) | -9.55
CCCN1CCN(C(=O)c2cccnc2)CC1 | -14.6
CC(C)C(NC(=O)c1nc(N2CCOCC2)ncc1Cl)c1cccs1 (stereo unspecified) | -9.67
CC(C)C(NC(=O)c1ccc(N2CCOCC2)nc1)c1cccs1 (stereo unspecified) | -9.4
O=C(Nc1c(N2CCCC2)cccc1N1CCCC1)c1cnccn1 | -14.4
O=C(CCn1cncn1)NCC1CCS(=O)(=O)C1 (stereo unspecified) | -12.4
CC(Sc1nncn1C)C(=O)NCCCOc1ccc(F)cc1 (stereo unspecified) | -22.5
N#Cc1ccccc1OCCN1CCCCC1C(=O)N1CCOCC1 (stereo unspecified) | 7.77
O=C1OCCN1CCSc1nnnn1CC(F)(F)F | -5.39
CCCNC(=O)C[S+]([O-])Cc1csc(C2CCCCC2)n1 (stereo unspecified) | -10.9
CC(C)c1nc2n(n1)CC(Nc1ncnc3c1CCC3)CC2 (stereo unspecified) | -13.9
CCN(CC)c1ncc(Cl)c(C(=O)NC2CCc3nccn3C2)n1 (stereo unspecified) | -13.5
Cn1c(CO)cnc1SC(C(N)=O)c1ccccc1 (stereo unspecified) | -15.2
Cn1c(CO)cnc1SC(C(=O)NC1CC1)c1ccccc1 (stereo unspecified) | -8.64
O=C(NCc1ccc(CN2CCCC2)cc1)NC1(CO)CCCC1 | 2.2
CCN(CC)c1ncc(Cl)c(C(=O)NC2CC2)n1 | -0.0542
CCC(Sc1ncc(CO)n1C)c1ccccc1 (stereo unspecified) | -10

SMILES | cytotoxicity at 70.5 h [%]
COc1ccc(N(C)C(=O)C2CN(C)CCO2)cc1Cl (stereo unspecified) | 8.7
CN1CCOC(C(=O)N(C)c2ccc3c(c2)CCO3)C1 (stereo unspecified) | -18.1
CN(C)c1cccc(C(=O)N2CCCc3cc(OC(F)(F)F)ccc32)c1 | -9.8
CCCOc1ccc(CN)c(OC(F)F)c1 | -3.13
COc1ccnc(N2CCC(OCCN3CCCCC3)C2)n1 (stereo unspecified) | -2.49
Cc1nnc(CN2CCCCC2c2nc(-c3ccccc3)no2)s1 (stereo unspecified) | -8.42
CN(C)c1ccc(C(=O)N2CCCc3cc(OC(F)(F)F)ccc32)cn1 | -5.84
CCCN1CCCN(C(=O)c2ccc(Oc3cccnc3)cc2)CC1 | -8.42
O=C(CCS(=O)(=O)C1CCCC1)N1CCCC(n2ccnc2)C1 (stereo unspecified) | 6.79
CC(C)(C)C(O)CN1CCN(Cc2cccc(C#N)c2)CC1 (stereo unspecified) | 14.7
CNC(=O)C1CN(c2ccc(F)cc2)CCN1 (stereo unspecified) | -1.89
Cc1cc(N2CCN(Cc3cn(C)nc3C)CC2)cc(C2CCNC2)n1 (stereo unspecified) | -5.44
COc1cc2c(cc1CNC(Cc1cccs1)c1nccs1)OCCO2 (stereo unspecified) | -3.19
c1coc(CN2CCC(c3ccc4c(c3)OCO4)CC2)c1 | -3.77
Cc1nc(N2CCCC2)nc2c1CN(C(C)C)CC2 | -12.7
COc1ccc(CN2CCc3ncnc(OC(C)C)c3CC2)cc1 | 43.9
Cc1ccc(CN2CCc3ncnc(C4CC4)c3CC2)s1 | 33.9
CN(Cc1cn2c(n1)CN(C1CCOC1)CC2)Cc1ccco1 (stereo unspecified) | -8.22
O=C(NCC1CC1)[C@H]1C[C@@H]2[C@@H](C1)OCCN2Cc1cccnc1 | 25
Cc1c[nH]c(C2CCCN(Cc3ccccc3C(=O)O)C2)n1 (stereo unspecified) | 18.7
